# Measurements published in US20080220416A1, “Compositions for Inhibiting Cell Growth and Inducing Apoptosis in Cancer Cells and Methods of Use Thereof” (THE BOARD OF TRUSTEES OF THE UNIVERSITY OF ILLINOI, priority 2004, published 2008).
# Entries after “also recorded” stand apart in the source; their conditions may differ. Square brackets hold non-standard residues; d marks the D form. Peptide text beside a SMILES is read from it. * marks the point of attachment. Nle = CCCC[C@H](N)C(=O)O; Cbz = O=C(OCc1ccccc1)*
# Tests used:
# NOXA [1] = test: Western blot of pro-apoptotic proteins in normal melanocytes treated with z-Leu-Leu-Nle-CHO; assay type: cell-based, human; conditions: data not shown
# [2] = system: T47D:A18 breast cancer cells; test: Cytotoxicity assay in T47D:A18 breast cancer cells; assay type: cell-based; conditions: T47D:A18 (p53 wild-type, ERα-positive); 48 h; read-out: IC50, cell growth inhibition
# Experimental: Cytotoxicity and growth of transfected cells were estimated by a standard assay used for cancer drug screening, through the total amount of TCA-precipitated cell proteins after drug treatment (Likhitwitayawuid, K et al., 1993, J Nat Prod 56:30-38): 200 μl of cell suspension (10^5 cells/ml) were added to each well in a 96-well plate. After incubation at, 37° C., in 5% CO2 (30 minutes to 72 hours depending on the time course chosen), 50 μl 50% trichloroacetic acid was added to each well. After incubation at 4° C. for 1 hour, precipitates were washed with water 4-5 times and air dried overnight. One hundred μl of SRB solution (0.4% sulforhodamine B in 1% acetic acid, filtered before use) was added to each well for 30 minutes. Wells were washed with 1% acetic acid 4-5 times and air dried. Two hundred μl 10 mM Tris base was added to each well. Plates were shaken for 5-10 minutes and OD at 490 nm (OD490) was recorded via ELISA reader. To assay matrix invasion, 300 μl of cell suspension (10^6 cells/mL in serum-free medium) were added to invasion inserts (BioCoat Matrigel Invasion Chambers, Becton Dickinson, Bedford, Mass.) and incubated for 22 hours at 37° C., 5% CO2. Cells were stained with 0.9% crystal violet in 10% ethanol for 20 minutes. […] After removal of the non-invading cells from the interior of the inserts, stained invading cells were lysed in 10% acetic acid and OD595 was determined. […]
# RJ002L melanoma cells = test: Dosing study versus chemotherapeutic agents, killing of RJ002L melanoma cells; assay type: cell-based, human
# Experimental: An initial dosing study comparing z-Leu-Leu-Nle-CHO against three different chemotherapeutic agents (i.e., adriamycin, etoposide, and cisplatin) was performed to evaluate the relative effectiveness of z-Leu-Leu-Nle-CHO in killing melanoma cells. In agreement with a previous report by Soengas, M. S. et al., 2001, Nature 409.207-211, SK-MeI-28 cells, carrying a mutated p53, were relatively resistant to killing by adriamycin, as well as to killing by other chemotherapeutic agents. For SK-MeI-28 melanoma cells, the maximal apoptotic response for adriamycin, etoposide, cisplatin, and z-Leu-Leu-Nle-CHO was 12.0%, 2.6%, 4.0%, and 29.4%, respectively. For RJ002L melanoma cells, the maximal apoptotic response for adriamycin, etoposide, cisplatin, and z-Leu-Leu-Nle-CHO was 23.9%, 12.7%, 3.4%, and 45.7%, respectively.
# NOXA [3] = test: Bortezomib on NOXA in SAOS2 osteogenic sarcoma cells (Western blot); assay type: cell-based; conditions: SAOS2, p53-null; 1 μM; 24 hr exposure
# Experimental: To test whether the NOXA inducing effect of bortezomib is limited to melanomas, SAOS2 cells (ATTC, Rockville, Md.), an osteogenic sarcoma cell line (p53-null) was exposed to 1 μM bortezomib. SAOS2 cells were tested for p53 expression and induction of NOXA expression before and during a 24 hr exposure to bortezomib (1 μM). The cells were assayed by Western blot using antibodies to NOXA, p53 and β-actin as described above.
Structure (SMILES),"induction of pro-apoptotic proteins (Bak, Bim, NOXA) (NOXA [1])",IC50 [2] [nM],maximal apoptotic response (RJ002L melanoma cells) [%],time course of NOXA induction (NOXA [3])
"CCCC[C@@H](C=O)NC(=O)[C@H](CC(C)C)NC(=O)[C@H](CC(C)C)NC(=O)OCc1ccccc1 [z-Leu-Leu-Nle-CHO, N-benzyloxycarbonyl-leucyl-leucyl-norleucinal] (Cbz-Leu-Leu-[Nle]-aldehyde)",did not induce any of the pro-apoptotic proteins; also recorded: did not induce NOXA in normal melanocytes,570,45.7,
"CC(C)C[C@H](NC(=O)[C@H](Cc1ccccc1)NC(=O)c1cnccn1)B(O)O [bortezomib, N-(2-pyrazine)carbonyl-L-phenylalanine-L-leucine boronic acid]",,,,induction of NOXA occurred beginning at 3-6 hrs with more prominent levels detected at 18-24 hrs
